Test results from PubChem BioAssay (NCI).
Values joined by “and” are separate entries in the source; they are usually repeats but may differ in a detail not shown here. Equal entries are not always repeated.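 Cultured in 96-well plates, cells were exposed to test compound for 48 hours across five concentrations. GI50 is the concentration that inhibits growth by half. TGI is the concentration that stops growth completely.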

Legend:
Assay in all cases: NCI-60 cell line screen, 48 h
[1] = test system: DMS 273 small cell lung
[2] = test system: RPMI-8226 leukemia
[3] = test system: MALME-3M melanoma
[4] = test system: DMS 114 small cell lung
[5] = test system: KM20L2 colon
[6] = test system: M19-MEL melanoma
[7] = test system: HCT-15 colon
[8] = test system: M14 melanoma
[9] = test system: NCI/ADR-RES ovarian
[10] = test system: MDA-MB-231 breast

Row | SMILES | GI50 [1] [µM] | TGI [1] [µM] | TGI [2] | GI50 [3] | TGI [3] | GI50 [4] [µM] | TGI [4] [µM] | GI50 [5] [µM] | TGI [5] [µM] | GI50 [6] [µM] | TGI [6] [µM] | GI50 [7] [µM] | TGI [7] | GI50 [8] [µM] | TGI [8] | TGI [9] [µM] | TGI [10] [µM] | GI50 [9] [µM] | GI50 [10] [µM] | GI50 [2] [µM]
1 | O=C1c2ccccc2C(=O)N1/N=C\c1ccc(Br)cc1 | > 100 | > 100 | > 10 µM | > 100 µM | > 100 µM | > 100 | > 100 | > 100 | > 100 | > 100 | > 100 | > 100 | > 100 µM | > 100 | > 100 µM | – | – | – | – | –
2 | Cc1cc(C)c(C(=O)O)c(N)c1O | – | > 100 | > 100 µM | – | > 100 µM | – | > 100 | – | > 100 | – | > 100 | – | > 100 µM | – | > 100 µM | – | – | – | – | –
3 | Nn1c(CCCl)nc2c(Br)cc(Br)cc2c1=O | – | > 100 | 58.5 µM | – | > 100 µM | – | 50.5 | – | 65.4 | – | > 82 | – | 55.1 µM | – | > 70 µM | – | – | – | – | –
4 | CCCCCCCC1c2cc3[nH]c(cc4nc(cc5[nH]c(cc(n2)[C@@]1(C)CC(=O)N(C)C)c(C)c5CCC(=O)O)C(CCC(=O)O)=C4C)cc3C (some centres undefined) | – | – | 47.7 µM | – | 39 µM | – | – | – | – | – | – | – | 39.5 µM | – | 29.8 µM | 43.1 | 33.7 | – | – | –
5 | NC1=NC(=O)N2CC12 (centres undefined) | – | > 100 | > 100 µM and 22 µM and 218 µM | 57.8 µM and 79.7 µM | > 100 µM and 202 µM | – | > 100 | – | > 100 | – | – | 301 | > 100 µM and 1140 µM | – | > 100 µM and 273 µM | 660 | 244 | 168 | 107 | –
6 | CC1(C)CCC(=O)c2c(O)ccc(O)c21 | – | > 100 | > 100 µM | – | > 100 µM | – | – | – | > 100 | – | > 100 | – | > 100 µM | – | – | – | – | – | – | –
7 | CS(=O)(=O)CCNCc1ccc(-c2ccc3ncnc(Nc4ccc(OCc5ccccc5)c(C(F)(F)F)c4)c3c2)o1 | – | – | 18.2 µM | 4.57 µM | 9.53 µM | – | – | – | – | – | – | 4.65 | 10.2 µM | 5.26 | 10.4 µM | > 25 | 8.66 | 7.03 | 4.55 | 7.37
8 | COC(=O)C1=CC(O)CCC1c1ccc(OC)cc1 (centres undefined) | – | > 100 | > 100 µM | – | > 100 µM | – | > 100 | – | > 100 | – | > 100 | – | > 100 µM | – | > 100 µM | – | – | – | – | –
9 | COc1cc2c(c(OC)c1OC)-c1ccc(OC)c(=O)cc1[C@@H](NC(=O)CCl)CC2 | – | – | 15.8 µM | 2.51 µM | 26.5 µM | – | – | – | – | – | – | 0.0308 | > 100 µM | < 0.01 | < 0.01 µM | > 23.2 | > 46 | 0.142 | < 0.01 | < 0.01
10 | CCCCCCCC[N+](C)(C)Cc1ccc(C[N+](C)(C)CCCCCCCC)cc1 | – | 36.5 | > 100 µM | – | > 100 µM | – | > 100 | – | > 100 | – | > 100 | – | > 100 µM | – | > 100 µM | – | – | – | – | –
11 | CN1CCC23c4c5ccc(O)c4OC2C(=NN=C2CCC4(O)C6Cc7ccc(O)c8c7C4(CCN6C)C2O8)CCC3(O)C1C5 (centres undefined) | – | > 100 | > 100 µM | – | > 100 µM | – | > 100 | – | > 100 | – | > 100 | – | > 100 µM | – | > 100 µM | – | – | – | – | –
